Source: ChEMBL document CHEMBL1147013, “Three anti-tumor saponins from Albizia julibrissin” (2006)

What was measured:
Type in all cases: functional
[1] = test system: MDA-MB-435; experiment: Antitumor activity against human MDA-MB-435 cell line by SRB assay
[2] = test system: HeLa; experiment: Antitumor activity against human HeLa cell line by SRB assay
[3] = test system: HL-60; experiment: Antitumor activity against human HL60 cell line by SRB assay
[4] = test system: PC-3; experiment: Antitumor activity against human PC-3M-1E8 cell line by MTT assay
[5] = test system: Bel-7402; experiment: Antitumor activity against human Bel7402 cell line by SRB assay
[6] = test system: Bel-7402; experiment: Antitumor activity against human Bel7402 cell line by MTT assay
[7] = test system: HeLa; experiment: Antitumor activity against human HeLa cell line by MTT assay
[8] = test system: BGC-823; experiment: Antitumor activity against human BGC823 cell line by SRB assay
[9] = test system: PC-3; experiment: Antitumor activity against human PC-3M-1E8 cell line by SRB assay

| SMILES | Inhibition [1] [%] | Inhibition [2] [%] | Inhibition [3] [%] | Inhibition [4] [%] | Inhibition [5] [%] | Inhibition [6] [%] | Inhibition [7] [%] | Inhibition [8] [%] | Inhibition [9] [%] |
| --- | --- | --- | --- | --- | --- | --- | --- | --- | --- |
| C=CC(C)(CC/C=C(/CO)C(=O)O[C@H]1CC2(C(=O)O[C@@H]3O[C@H](CO)[C@@H](O)[C@H](O)[C@@H]3O[C@H]3O[C@H](C)[C@@H](O[C@H]4O[C@H](CO)[C@@H](O)[C@@H]4O)[C@H](O[C@H]4O[C@@H](CO)[C@H](O)[C@@H](O)[C@@H]4O)[C@@H]3O)C(CC1(C)C)C1=CCC3C4(C)CC[C@H](O[C@@H]5O[C@H](CO[C@H]6O[C@@H](C)[C@@H](O)[C@@H](O)[C@@H]6O[C@H]6OC[C@H](O)[C@@H](O)[C@@H]6O)[C@@H](O)[C@H](O)[C@H]5NC(C)=O)C(C)(C)C4CCC3(C)[C@]1(C)C[C@H]2O)O[C@H]1OC[C@H](O)[C@@H](O)[C@@H]1O (stereo not given in full) [JULIBROSIDE J30] | 75.68 | 91.65 | 25.59 | 75.96 | 57.49 | 61.87 | 92.19 | 46.66 | 84.98 |
| C=CC(C)(CC/C=C(/CO)C(=O)O[C@H]1CC2(C(=O)O[C@@H]3O[C@H](CO)[C@@H](O)[C@H](O)[C@@H]3O[C@H]3O[C@H](C)[C@@H](O[C@H]4O[C@H](CO)[C@@H](O)[C@@H]4O)[C@H](O[C@H]4O[C@@H](CO)[C@H](O)[C@@H](O)[C@@H]4O)[C@@H]3O)C(CC1(C)C)C1=CCC3C4(C)CC[C@H](O[C@@H]5O[C@H](CO[C@H]6O[C@@H](C)[C@@H](O)[C@@H](O)[C@@H]6O[C@H]6OC[C@H](O)[C@@H](O)[C@@H]6O)[C@@H](O)[C@H](O)[C@H]5OC5O[C@H](CO)[C@@H](O)[C@H](O)[C@H]5O)C(C)(C)C4CCC3(C)[C@]1(C)C[C@H]2O)O[C@H]1O[C@@H](C)[C@H](O)[C@@H](O)[C@@H]1O (stereo not given in full) [JULIBROSIDE J31] | 80.41 | 83.48 | 39.33 | 94.71 | 46.61 | 44.34 | 64.33 | 15.16 | 80.85 |
| C=C[C@@](C)(CC/C=C(\CO)C(=O)O[C@H]1C[C@]2(C(=O)O[C@@H]3O[C@H](CO)[C@@H](O)[C@H](O)[C@H]3O[C@@H]3O[C@@H](C)[C@H](O[C@@H]4O[C@@H](CO)[C@H](O)[C@H]4O)[C@@H](O[C@@H]4O[C@H](CO)[C@@H](O)[C@H](O)[C@H]4O)[C@H]3O)[C@H](O)C[C@]3(C)C(=CC[C@@H]4[C@@]5(C)CC[C@H](O[C@@H]6O[C@H](CO[C@@H]7O[C@H](C)[C@H](O)[C@H](O)[C@H]7O[C@@H]7OC[C@@H](O)[C@H](O)[C@H]7O)[C@@H](O)[C@H](O)[C@H]6NC(C)=O)C(C)(C)[C@@H]5CC[C@]43C)[C@@H]2CC1(C)C)O[C@@H]1O[C@H](C)[C@@H](O)[C@H](O)[C@H]1O [JULIBROSIDE J29] | 84.47 | 94.9 | 25.35 | 81.4 | 67.14 | 50.37 | 87.75 | 52.9 | 85.37 |
| COc1cccc2c1C(=O)c1c(O)c3c(c(O)c1C2=O)C[C@@](O)(C(=O)CO)C[C@@H]3O[C@H]1C[C@H](N)[C@H](O)[C@H](C)O1 [DOXORUBICIN] | – | – | – | 91.61 | – | 51.26 | 76.96 | – | – |
